From article PMC6260619, “Selective Cytotoxicity of Goniothalamin against Hepatoblastoma HepG2 Cells” (Molecules, 2011)
Where two headings read alike, the source gives them in different places.

Tests used:
Assay type in all cases: cell-based, human
[1] = test system: Chang cells; assay: LDH leakage assay, Chang; details: for IC50: read-out: IC50 from LDH
Description: Measurement of LDH activity is another indicator of cell viability through evaluation of the cell membrane permeability. The enzyme activity is measured externally, as it leaks from dead cells which lose their membrane integrity. LDH leakage detection is based on the loss of NADH due to its oxidation to NAD^+, resulting in the conversion of pyruvate to lactate. Untreated cells should retain LDH in their cells and have minimal loss over the time of the assay. Triton X-100-treated cells that give the maximum loss of LDH were used as the positive control in this assay.
To determine the effect of goniothalamin on membrane permeability in HepG2 and Chang cell lines, a lactate dehydrogenase (LDH) release assay was used. The cells were seeded in 96-well culture plates at a density of 2 × 10^4 cells/well in 100 μL volume and allowed to grow for 18 hours before treatment. After treatment, the plates were incubated for 24, 48 and 72 hours, respectively. Then, the supernatant (40 μL) was transferred to a new 96 well to determine LDH release and 6% triton X-100 (40 μL) was added to the original plate for determination of total LDH. An aliquot of 0.1 M potassium phosphate buffer (100 μL, pH 7.5) containing 4.6 mM pyruvic acid was mixed to the supernatant using repeated pipetting. Then, 0.1 M potassium phosphate buffer (100 μL, pH 7.5) containing 0.4 mg/mL reduced β-NADH was added to the wells. The kinetic changes were read for 1 min using ELISA microplate reader in absorbance at wavelength 340 nm. This procedure was repeated with 40 μL of the total cell lysate to determine total LDH U/well. A change of 0.001 absorbance units/min is equivalent to 1 U/L of LDH activity. The percentage of LDH release was determined by dividing the LDH released into the media by the total LDH following cell lysis in the same well.

[2] = test system: HepG2 cells; assay: BrdU cell proliferation ELISA, HepG2
Description: To further confirm the potential of goniothalamin-induced cell death HepG2 cells, a BrdU cell proliferation assay was performed. The cell proliferation percentage was measured by the incorporation of the thymidine analogue bromodeoxyuridine into DNA. In untreated HepG2, the absorbances (OD) at 450 nm wavelength were 1.445, 2.188 and 2.553 for 24, 48 and 72 hours, respectively. The cell proliferation rate was reduced in a concentration dependent manner after the addition of goniothalamin, compared to untreated control cells after all the times (Figure 3). […] Inhibition of DNA synthesis at the highest concentration (150 µM) is also time-dependent and is the most severe.
(§1) To confirm anti-proliferative effects in goniothalamin-treated cells, BrdU cell proliferation kit was used. HepG2 and Chang cells were seeded at 1.5 × 10^5 cells/mL in a final volume of 100 μL in a 96-well culture dish and incubated overnight to allow the cells to adhere to the dish. Each sample was assayed in triplicate. Besides, the control samples include a blank (no cells) and background (cells without BrdU) was also prepared. […] Then, BrdU label (20 μL, diluted by 1/2,000 in media) was added to each well and incubated for 24 h at 37 °C. The media was discarded and replaced by fix/denaturing solution (200 μL). The plate was incubated for 30 min at room temperature. The fix/denaturing solution was removed by inverting the plate. Then, BrdU antibody (100 μL, diluted by 1/100 in dilution buffer) was added to each well and left for 1 hour at room temperature. The cells were washed 3 times with wash buffer. After that, secondary antibody (100 μL, anti-mouse IgG HRP conjugated) was added to each well for 30 min. The washing step was done three times with wash buffer and once with distilled water. The distilled water was removed and substrate solution (100 μL) was added to each well. The plate was left for 15 min at room temperature in the dark condition. Finally, stop solution (100 μL) was added to the wells and absorbance measured at 450–540 nm.

[3] = test system: Chang cells; assay: BrdU cell proliferation ELISA, Chang
Description: The inhibition of goniothalamin on cellular DNA synthesis in Chang cells was also measured by BrdU incorporation.
as §1

[4] = test system: HepG2 cells; assay: Trypan blue dye exclusion viable cell count, HepG2
Description: As supported by MTT and LDH results, goniothalamin inhibited cell proliferation towards HepG2 in a time- and dose-dependent manner as shown in the BrdU incorporation ELISA method. The effects of goniothalamin on HepG2 and Chang cell growth were also analyzed by viable cell counts using trypan blue dye exclusion assay for 24, 48 and 72 hours after treatment with different doses of goniothalamin. […] The ratio between viable cell numbers in goniothalamin-treated cells and control cells was reported as the Viablity Index (VI, Figure 5A and Figure 5B).
A half mL aliquot of cell suspension (obtained from treated and non-treated HepG2 and Chang cells), was mixed with 0.5 mL of 0.4% trypan blue dye and left for 5 min at room temperature). The cells were counted using the hemacytometer and the percentage of dead cells was determined.

With `O=C1C=CC[C@H](/C=C/c2ccccc2)O1` [Goniothalamin, 5-hydroxy-7-phenylhepta-2,6-dienoic acid lactone] the “increase in LDH leakage” value ([1]; Chang, 4.7 µM, 72 hours) was 19%, the “loss of viability (LDH leakage)” value ([1]; Chang, 37.5 µM) was ≤ 52% and the “toxicity (LDH leakage)” value ([1]; Chang, 2.3, 4.7 or 9.4 µM, on completion of incubation) was “no significant toxicity”. The IC50 ([1]; Chang, 72 hours) was 32.5 µM, the IC50 ([1]; Homo sapiens, 24 h, Chang, 24 hours) was 69.6 µM and the IC50 ([1]; Homo sapiens, 48 h, Chang, 48 hours) was 55.1 µM. For the same compound, the IC50 ([1]; Homo sapiens, 72 h, Chang, 72 hours) was 32.5 µM, the “OD value at 450 nm (BrdU incorporation)” value ([2]; HepG2, IC50 concentration, 24 hours, untreated 1.445) was 0.635 and the “OD value at 450 nm (BrdU incorporation)” value ([2]; HepG2, IC50 concentration, 72 hours, untreated 2.553) was 0.372. The “cell proliferation as compared to control (BrdU)” value ([2]; HepG2, lowest concentration (2.3 µL as printed), 72 hours) was 19.8%, the “OD value at 450 nm (BrdU incorporation)” value ([2]; HepG2, lowest concentration, 72 hours, untreated 2.553) was 0.505 and the “percentage of cells incorporating BrdU in comparison with untreated cells” value ([3]; IC50, 24 hours) was 62.4%. For the same compound, the “percentage of cells incorporating BrdU in comparison with untreated cells” value ([3]; IC50, 72 hours) was 23.5%, the “decrease in cell proliferation compared to untreated cells (BrdU)” value ([3]; lowest concentration (2.3 µM), 72 hours) was 2% and the “cell proliferation retained (BrdU)” value ([3]; lowest concentration (2.3 µL as printed), 72 hours) was 97.6%. For the same compound, the “viability (cell count, trypan blue)” value ([4]; HepG2, 2.3 µM) was “significantly inhibited”, the “Viability Index” value ([4]; HepG2, at IC50, 72 hours) was 52 ± 1.73% and the inhibition at 4.6 µM ([4]; Homo sapiens, HepG2, 4.6 µM, 72 hours, read-out: inhibition of cell growth (trypan blue)) was 52%. The inhibition at 8.3 µM ([4]; Homo sapiens, HepG2, 8.3 µM, 48 hours, read-out: inhibition of cell growth (trypan blue)) was 64% and the inhibition at 9.2 µM ([4]; Homo sapiens, HepG2, 9.2 µM, 24 hours, read-out: inhibition of cell growth (trypan blue)) was 79%.
